# Measurements from the PolyMetriX glass transition set.
# ± gives the standard deviation of the reports.
row,glass transition temperature,SMILES
1,315.00 °C,*C(=O)Nc1ccc(Oc2ccc(C3(c4ccc(Oc5ccc(NC(=O)c6ccc7c(c6)C(=O)N(c6ccc(C)c(N8C(=O)c9ccc(*)cc9C8=O)c6)C7=O)cc5)cc4)NC(=O)c4ccccc43)cc2)cc1 (repeat unit)
2,124.00 °C,*Oc1ccc(C(C)(C)c2ccc(OC(=O)c3ccc(C(c4ccc(C(*)=O)cc4)(C(F)(F)F)C(F)(F)F)cc3)cc2)cc1 (repeat unit)
3,285.00 °C,*c1cccc(Cc2cccc(N3C(=O)c4ccc([Si](C)(C)c5ccc(-c6ccc([Si](C)(C)c7ccc8c(c7)C(=O)N(*)C8=O)cc6)cc5)cc4C3=O)c2)c1 (repeat unit)
4,278.00 °C,*Oc1ccc(C2(c3ccc(OC(*)=O)cc3)c3cc(N(C)C)ccc3-c3ccc([N+](=O)[O-])cc32)cc1 (repeat unit)
5,219.00 °C,*c1ccc(Oc2cccc(Oc3ccc(N4C(=O)c5ccc(Oc6ccc(S(=O)(=O)c7ccc(Oc8ccc9c(c8)C(=O)N(*)C9=O)cc7)cc6)cc5C4=O)cc3)c2)cc1 (repeat unit)
6,202.00 °C,*c1ccc(*)c(C(=O)c2ccc(C)cc2)c1 (repeat unit)
7,-71.00 °C,*CCOCCOC(=O)CCCCCCCC(=O)O* (repeat unit)
8,137.50 °C,*Oc1cccc(Oc2cccc(NC(=O)c3cccc(Oc4cccc(Oc5cccc(C(=O)Nc6cccc(*)c6)c5)c4)c3)c2)c1 (repeat unit)
9,224.00 °C,*c1ccc(Oc2ccc(C(c3ccc(Oc4ccc(-c5nc(-c6ccccn6)nnc5*)cc4)cc3)(C(F)(F)F)C(F)(F)F)cc2)cc1 (repeat unit)
10,135.00 °C,*Oc1ccc(Oc2ccc(/C(=N\c3ccccc3)c3ccc(Oc4ccc(Oc5cccc(*)n5)cc4)cc3)cc2)cc1 (repeat unit)
11,-14.00 °C,*CCCCCCCCCCOC(=O)c1ccccc1C(=O)O* (repeat unit)
12,165.00 °C,*CCNC(=O)c1ccc([Si](c2ccccc2)(c2ccccc2)c2ccc(C(=O)NCCN(*)c3ccc(/C=C/c4ccc([N+](=O)[O-])cc4)cc3)cc2)cc1 (repeat unit)
13,34.00 °C,*/C=C/CC(C*)(C(=O)OC12CC3CC(CC(C3)C1)C2)C(=O)OC12CC3CC(CC(C3)C1)C2 (repeat unit)
14,285.00 °C,*C(=O)c1ccc2c(c1)C(=O)N(c1c(C)cc(C(c3cccc(C(F)(F)F)c3)c3cc(C)c(N4C(=O)c5ccc(*)cc5C4=O)c(C)c3)cc1C)C2=O (repeat unit)
15,258.00 °C,*c1cc(C(=O)OC)cc(N2C(=O)CC(C3Cc4ccccc4C4C(=O)N(*)C(=O)C43)C2=O)c1 (repeat unit)
16,154.00 °C,*C(=O)c1ccc(C(=O)c2ccc(Oc3ccc(C(C)(C)c4ccc(Oc5ccc(*)s5)cc4)cc3)s2)cc1 (repeat unit)
17,306.00 °C,*c1ccc(Oc2ccc(-c3nc4ccc(-c5ccc6nc(*)c(-c7ccccc7)nc6c5)cc4nc3-c3ccccc3)cc2)cc1 (repeat unit)
18,220.00 °C,*Oc1c(-c2ccccc2)cc(*)cc1-c1ccccc1 (repeat unit)
19,74.10 °C,*CCOC(=O)Nc1ccc(CCCc2ccc(NC(=O)O*)cc2)cc1 (repeat unit)

row,glass transition temperature,SMILES
1,347.00 °C,*C(=O)c1ccc2c(c1)C(=O)N(c1ccc(Cc3ccc(Cc4ccc(N5C(=O)c6ccc(*)cc6C5=O)cc4)cc3)cc1)C2=O (repeat unit)
2,-52.00 °C,*CC(*)c1ccc(CCCCCCCCCCCC)cc1 (repeat unit)
3,106.80 °C,*CC(*)C(=O)OCCn1c2ccccc2c2ccccc21 (repeat unit)
4,31.00 °C,*C(=O)OCCCSCCCCCCSCCCOC(=O)c1ccc(N2C(=O)c3ccc(*)cc3C2=O)cc1 (repeat unit)
5,58.00 °C,*CC(O)CN(C)S(=O)(=O)c1cccc(S(=O)(=O)N(C)CC(O)COc2ccc(-c3ccc(O*)cc3)cc2)c1 (repeat unit)
6,177.00 °C,*Oc1cccc(Oc2ccc(S(=O)(=O)c3ccc(*)cc3)cc2)c1 (repeat unit)
7,35.00 °C,*CC(*)c1cccc(B(O[Si](C)(C)C)O[Si](C)(C)C)c1 (repeat unit)
8,224.00 °C,*CCN(CCN1C(=O)c2ccc(C(c3ccc4c(c3)C(=O)N(*)C4=O)(C(F)(F)F)C(F)(F)F)cc2C1=O)c1ccc(/C=C/C2=CC(=C(C#N)C#N)CC(C)(C)C2)cc1 (repeat unit)
9,73.00 °C,*c1ccc2c(c1)C(CCCCCC)(CCCCCC)c1cc(-c3cc(OCc4ccccc4)c(*)cc3OCc3ccccc3)ccc1-2 (repeat unit)
10,315.00 °C,*c1ccc(NC(=O)c2ccc(NC(=O)c3ccc([Si](C)(C)c4ccc(C(=O)Nc5ccc(C(=O)Nc6ccc(S(*)(=O)=O)cc6)cc5)cc4)cc3)cc2)cc1 (repeat unit)
11,200.00 °C,*CC1CCCC(CNC(=O)c2cc(C(=O)N*)cc(C(C)(C)C)c2)C1 (repeat unit)
12,260.00 °C,*c1ccc(Oc2ccc(C(=O)c3ccc(Oc4ccc(-c5c6c(c(*)c7ccccc57)C(=O)N(c5ccc(C(F)(F)F)cc5)C6=O)cc4)cc3)cc2)cc1 (repeat unit)
13,130.00 °C,*=Nc1ccc(Cc2ccc(NC(=*)CC)cc2)cc1 (repeat unit)
14,399.8 °C,*c1c(C)cc(C)c(-n2c(=O)c3cc4c(=O)n(*)c(=O)c4cc3c2=O)c1C (repeat unit)
15,178.00 °C,*c1ccc(Oc2cccc(Oc3ccc(N4C(=O)c5ccc(Oc6ccc(Sc7ccc(Oc8ccc9c(c8)C(=O)N(*)C9=O)cc7)cc6)cc5C4=O)cc3)c2)cc1 (repeat unit)
16,70.00 °C,*CCCCOC(=O)c1ccc(-c2ccc(C(=O)O*)cc2)cc1 (repeat unit)
17,116.00 °C,*Cc1ccc(C(C)(C)c2ccc(CN3C(=O)c4ccc(Oc5ccc6c(c5)C(=O)N(*)C6=O)cc4C3=O)o2)o1 (repeat unit)
18,57.00 °C,*CC(*)(C)C(=O)OCCOCCOc1ccc(/N=N/c2ccc(C#N)cc2)cc1 (repeat unit)
19,199.00 °C,*CC(*)(C)c1ccc(C(O)C(F)(F)F)cc1 (repeat unit)

row,SMILES,glass transition temperature
1,*C(OC(F)(F)F)C(*)(F)F (repeat unit),-10.00 °C
2,*CC(*)OC(=O)C(C)(C)C(C)(C)CC (repeat unit),90.00 °C
3,*CC(*)c1ccccc1C(=O)OC (repeat unit),130.00 °C
4,*OC(=O)Cc1ccc(CC(*)=O)cc1 (repeat unit),65.00 °C
5,*CCNC(=O)c1cccc(O*)c1 (repeat unit),106.00 °C
6,*CC(*)OC(=O)c1ccc(C(C)C)cc1 (repeat unit),67.70 °C
7,*Nc1ccc(*)cc1 (repeat unit),75.30 °C
8,*OP(=O)(Oc1c(Cl)cc(Cl)cc1Cl)Oc1c(Cl)c(Cl)c(*)c(Cl)c1Cl (repeat unit),127.00 °C
9,*CCC(C)CCC(=O)O* (repeat unit) [Poly(oxycarbonyl-3-methylpentamethylene) ],-53 ± 0.6 °C
10,*CCOC(=O)CCSCCC(=O)O* (repeat unit),-43.00 °C
